Reference: ChEMBL document CHEMBL4421727, “Small molecule inhibitors of 8-oxoguanine dna glycosylase-1 (ogg1)” (2017)
Calls of active or inactive are those of the source. No cut-off for these calls is given here.

What was measured:
[1] = target: T1, N-glycosylase/DNA lyase (Homo sapiens, UniProt O15527); experiment: Inhibition of human OGG1 assessed as protection against NaOH-mediated strand cleavage using AP-containing substrate; parameters: scale not given: the % may be the effect or the level left
[2] = Binding affinity to duplex DNA (unknown origin) assessed as induction of DNA intercalation at 50 uM incubated for 30 mins by gel electrophoresis
[3] = target: T2, Endonuclease III-like protein 1 (Homo sapiens) (UniProt P78549); experiment: Inhibition of NTH1 (unknown origin) assessed as remaining enzyme activity at 50 uM incubated for 40 mins by TAMRA fluorescence-based assay
T2 sequence (whole entry): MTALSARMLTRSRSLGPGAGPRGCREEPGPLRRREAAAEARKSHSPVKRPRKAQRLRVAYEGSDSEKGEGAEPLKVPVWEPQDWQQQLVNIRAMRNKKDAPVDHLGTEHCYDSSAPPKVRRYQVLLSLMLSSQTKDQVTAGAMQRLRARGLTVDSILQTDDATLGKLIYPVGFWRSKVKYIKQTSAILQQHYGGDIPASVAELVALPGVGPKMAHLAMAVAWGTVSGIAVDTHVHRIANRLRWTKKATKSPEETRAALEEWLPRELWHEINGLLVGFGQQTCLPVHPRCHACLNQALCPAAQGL

[4] = target: T3, Endonuclease 8-like 1 (Homo sapiens, UniProt Q96FI4); experiment: Inhibition of NEIL1 (unknown origin) assessed as remaining enzyme activity at 50 uM using Sp/Gh substrate incubated for 40 mins by TAMRA fluorescence-based assay
[5] = target: T4, Formamidopyrimidine-DNA glycosylase (Escherichia coli (strain K12)) (UniProt P05523); experiment: Inhibition of Escherichia coli FPG assessed as remaining enzyme activity at 50 uM using 8-oxo-Gua substrate incubated for 10 mins by TAMRA fluorescence-based assay
T4 sequence (whole entry): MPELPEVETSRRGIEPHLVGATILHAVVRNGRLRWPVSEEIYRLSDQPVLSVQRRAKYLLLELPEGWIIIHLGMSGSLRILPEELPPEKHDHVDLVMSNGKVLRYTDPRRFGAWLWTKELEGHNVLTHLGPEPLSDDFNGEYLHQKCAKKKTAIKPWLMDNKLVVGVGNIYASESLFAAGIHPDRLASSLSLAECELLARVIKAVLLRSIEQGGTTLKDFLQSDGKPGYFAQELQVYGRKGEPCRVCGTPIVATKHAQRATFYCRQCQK

[6] = target: T3, Endonuclease 8-like 1; experiment: Inhibition of NEIL1 (unknown origin) using Sp/Gh substrate incubated for 40 mins by TAMRA fluorescence-based assay
[7] = target: T4, Formamidopyrimidine-DNA glycosylase (Escherichia coli (strain K12)); experiment: Inhibition of Escherichia coli FPG assessed as reduction in enzyme-mediated incision using compound pre-incubated with 8-oxo-Gua substrate for 30 mins at 37 degC followed by enzyme addition
[8] = target: T2, Endonuclease III-like protein 1 (Homo sapiens); experiment: Inhibition of NTH1 (unknown origin) assessed as effect on DNA lesions per 10^6 DNA bases using 5-hydroxycytosine substrate incubated for 1 hr by GC-MS/MS assay
[9] = target: T5, Endonuclease III-like protein 1 (Homo sapiens, UniProt P78549); experiment: Inhibition of NTH1 (unknown origin) incubated for 40 mins by TAMRA fluorescence-based assay
T5 sequence (P78549 whole entry): T2 sequence (whole entry)

[10] = target: T2, Endonuclease III-like protein 1 (Homo sapiens); experiment: Inhibition of NTH1 (unknown origin) assessed as effect on DNA lesions per 10^6 DNA bases using thymine glycol substrate incubated for 1 hr by GC-MS/MS assay
[11] = target: T3, Endonuclease 8-like 1; experiment: Inhibition of NEIL1 (unknown origin) assessed as effect on DNA lesions per 10^6 DNA bases using 5-OH-5-MeHyd substrate incubated for 1 hr by GC-MS/MS assay
[12] = target: T4, Formamidopyrimidine-DNA glycosylase (Escherichia coli (strain K12)); experiment: Inhibition of Escherichia coli FPG assessed as reduction in enzyme-mediated incision using compound pre-incubated with AP-site containing DNA substrate for 30 mins at 37 degC followed by enzyme addition
[13] = target: T2, Endonuclease III-like protein 1 (Homo sapiens); experiment: Inhibition of NTH1 (unknown origin) assessed as effect on DNA lesions per 10^6 DNA bases using 5-OH-5-MeHyd substrate incubated for 1 hr by GC-MS/MS assay
[14] = target: T6, Formamidopyrimidine-DNA glycosylase (Escherichia coli (strain K12), UniProt P05523); experiment: Inhibition of Escherichia coli FPG using 8-oxo-Gua substrate incubated for 10 mins by TAMRA fluorescence-based assay
T6 sequence (P05523 whole entry): T4 sequence (whole entry)

[15] = target: T3, Endonuclease 8-like 1; experiment: Inhibition of NEIL1 (unknown origin) assessed as effect on DNA lesions per 10^6 DNA bases using FapyAde substrate incubated for 1 hr by GC-MS/MS assay
[16] = target: T3, Endonuclease 8-like 1; experiment: Inhibition of NEIL1 (unknown origin) assessed as effect on DNA lesions per 10^6 DNA bases using FapyGua substrate incubated for 1 hr by GC-MS/MS assay
[17] = target: T2, Endonuclease III-like protein 1 (Homo sapiens); experiment: Inhibition of NTH1 (unknown origin) assessed as effect on DNA lesions per 10^6 DNA bases using FapyGua substrate incubated for 1 hr by GC-MS/MS assay
[18] = target: T2, Endonuclease III-like protein 1 (Homo sapiens); experiment: Inhibition of NTH1 (unknown origin) assessed as effect on DNA lesions per 10^6 DNA bases using FapyAde substrate incubated for 1 hr by GC-MS/MS assay
[19] = target: T1, N-glycosylase/DNA lyase; details: 0.08 to 8 uM
Description: Inhibition of human OGG1 at 0.08 to 8 uM incubated for 30 mins using 8-oxo-Gua-containing substrate by PAGE-based cleavage assay

[20] = target: T1, N-glycosylase/DNA lyase; experiment: Inhibition of human OGG1 assessed as reduction in free Inhibition of human OGG1 assessed as reduction in free FapyGua release using gamma-irradiated calf thymus DNA substrate incubated for 1 hr by GC-MS/MS assay
[21] = species: Homo sapiens; experiment: Selectivity index, ratio of IC50 for inhibition of NEIL1 (unknown origin) using Sp/Gh substrate incubated for 40 mins by TAMRA fluorescence-based assay to IC50 for inhibition of human OGG1 incubated for 30 mins using 8-oxo-Gua-containing substrate by TAMRA fluorescence-based assay
[22] = Selectivity index, ratio of IC50 for inhibition of Escherichia coli FPG using 8-oxo-Gua substrate incubated for 10 mins by TAMRA fluorescence-based assay to IC50 for inhibition of human OGG1 incubated for 30 mins using 8-oxo-Gua-containing substrate by TAMRA fluorescence-based assay
[23] = target: T1, N-glycosylase/DNA lyase; experiment: Inhibition of human OGG1 assessed as reduction in free 8-oxo-Gua release using gamma-irradiated calf thymus DNA substrate incubated for 1 hr by GC-MS/MS assay
[24] = species: Homo sapiens; experiment: Selectivity index, ratio of IC50 for inhibition of NTH1 (unknown origin) incubated for 40 mins by TAMRA fluorescence-based assay to IC50 for inhibition of human OGG1 incubated for 30 mins using 8-oxo-Gua-containing substrate by TAMRA fluorescence-based assay
[25] = target: T1, N-glycosylase/DNA lyase; experiment: Inhibition of human OGG1 catalytic activity assessed as reduction trapping of substrates at 10 uM using AP site containing substrate in presence of sodium cyno-borohydride by gel electrophoresis method
[26] = target: T1, N-glycosylase/DNA lyase; experiment: Inhibition of human OGG1 assessed as reduction in AP lyase activity using AP-containing substrate
[27] = target: T1, N-glycosylase/DNA lyase; experiment: Inhibition of human OGG1 catalytic activity assessed as reduction trapping of substrates at 10 uM using 8-oxo-Gua substrate in presence of sodium cyno-borohydride by gel electrophoresis method
[28] = target: T1, N-glycosylase/DNA lyase; experiment: Inhibition of human OGG1 binding to 8-oxo-Gua substrate using compound pre-incubated with enzyme for 5 to 10 mins before substrate addition and further incubated for 5 mins by native gel electrophoresis based by gel-shift assay

T1 sequence (O15527 whole entry): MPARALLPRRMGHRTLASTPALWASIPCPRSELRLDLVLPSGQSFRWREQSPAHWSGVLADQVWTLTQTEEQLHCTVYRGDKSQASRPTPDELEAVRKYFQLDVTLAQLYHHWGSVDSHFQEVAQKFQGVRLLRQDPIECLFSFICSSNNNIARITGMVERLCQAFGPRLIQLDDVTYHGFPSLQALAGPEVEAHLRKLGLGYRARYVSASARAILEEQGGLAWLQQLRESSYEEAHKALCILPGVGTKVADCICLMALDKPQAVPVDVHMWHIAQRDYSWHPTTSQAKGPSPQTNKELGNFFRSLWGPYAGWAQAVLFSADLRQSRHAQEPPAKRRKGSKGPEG
T3 sequence (Q96FI4 whole entry): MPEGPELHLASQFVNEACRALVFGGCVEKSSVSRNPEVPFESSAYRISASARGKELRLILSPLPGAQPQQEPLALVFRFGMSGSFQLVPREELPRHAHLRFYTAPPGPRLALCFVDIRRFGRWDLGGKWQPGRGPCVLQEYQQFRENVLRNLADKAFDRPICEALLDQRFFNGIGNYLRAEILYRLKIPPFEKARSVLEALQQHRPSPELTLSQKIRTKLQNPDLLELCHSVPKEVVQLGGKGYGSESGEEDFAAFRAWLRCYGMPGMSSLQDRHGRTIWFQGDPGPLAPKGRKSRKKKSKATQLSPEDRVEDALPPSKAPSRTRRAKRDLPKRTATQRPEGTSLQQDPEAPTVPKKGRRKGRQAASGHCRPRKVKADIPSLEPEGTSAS

Work on `NNc1nncc2ccccc12` yielded an Activity [1] of 64%.
In the case of `COc1cc(C)c(S(=O)(=O)n2cc(C)nc2-c2ccccc2)cc1C`, the Activity [2] is reported as “inactive”, the Activity [3] is reported as 109% and the Activity [4] is reported as 100%.
With `Cc1cc(OCC(=O)NN)cc(C)c1Cl` the Activity [5] was 95%, the Activity [2] was “inactive” and the Activity [3] was 75.1%. The Activity [4] was 83.7%.
For `O=C(N/N=C/c1ccc(F)cc1)c1sc2ccccc2c1Cl`, the IC50 [6] was over 50 µM, the Activity [5] was 81.7% and the inhibition [7] was “inactive”. The inhibition [8] was “inactive”, the Activity [2] was “inactive” and the IC50 [9] was over 50 µM. The inhibition [10] was “inactive”, the Activity [3] was 89.2% and the Activity [4] was 86.7%. The inhibition [11] was “inactive”, the inhibition [12] was “inactive” and the inhibition [13] was “inactive”. For the same molecule, the IC50 [14] was over 50 µM, the inhibition [15] was “inactive” and the inhibition [16] was “inactive”. The inhibition [17] was “inactive” and the inhibition [18] was “inactive”.
For `CC(Oc1cccc(Cl)c1)C(=O)NN` (stereo not drawn), the Activity [5] was 90.8%, the Activity [2] was “inactive” and the Activity [3] was 100%. For the same molecule, the Activity [4] was 95.3%.
In the case of `NNC(=O)c1ccncc1`, the inhibition [19] is reported as “inactive”, the inhibition [20] is reported as “inactive” and the Ratio IC50 [21] is reported as over 200. For the same molecule, the Activity [1] was 1%, the Ratio IC50 [22] was over 200 and the inhibition [23] was “inactive”. The Ratio IC50 [24] was over 200, the inhibition [25] was “Active” and the inhibition [26] was “inactive”. The Activity [3] was 98%, the Activity [4] was 80.6% and the inhibition [27] was “Active”.
For `O=C(NN=C1CCCCC1)c1cc2ccccc2cc1O`, the IC50 [6] was over 50 µM, the inhibition [20] was “Active” and the Activity [5] was 77%. The Ratio IC50 [21] was over 200, the Activity [1] was 10% and the Ratio IC50 [22] was over 200. The inhibition [7] was “inactive”, the inhibition [23] was “Active” and the inhibition [8] was “inactive”. The Activity [2] was “inactive”, the Ratio IC50 [24] was over 200 and the inhibition [25] was “Active”. For the same molecule, the inhibition [26] was “Active”, the IC50 [9] was over 50 µM and the inhibition [10] was “inactive”. The Activity [3] was 83%, the inhibition [28] was “inactive” and the Activity [4] was 87.4%. The inhibition [27] was “Active”, the inhibition [11] was “inactive” and the inhibition [12] was “inactive”. The inhibition [13] was “inactive”, the IC50 [14] was over 50 µM and the inhibition [15] was “inactive”. For the same molecule, the inhibition [16] was “inactive”, the inhibition [17] was “inactive” and the inhibition [18] was “inactive”.
In the case of `CCCN1CCC(=NNC(=O)c2ccc(Cl)cc2Cl)CC1`, the Activity [2] is reported as “inactive”, the Activity [3] is reported as 96.1% and the Activity [4] is reported as 91.2%.
For `O=C(O)C1=CC(=C(c2ccc(O)c(C(=O)O)c2)c2ccc(O)c(C(=O)O)c2)C=CC1=O`, the inhibition [28] was “Active”.
In the case of `CC[n+]1c(-c2ccccc2)c2cc(N)ccc2c2ccc(N)cc21`, the Activity [2] is reported as “Active”.
